Test results reported in patent US20240279304A1, “DSG2 COMPOSITIONS AND METHODS” (Arvada Therapeutics, Inc., priority 2021, published 2024).
“Also recorded” adds a separate entry of the source.

Legend:
[1] = test system: ARVC serum (anti-DSG2 antibodies in serum obtained from ARVC patients); assay: anti-DSG2 antibody MSD assay, blocking of ARVC patient serum; type: binding, human; set-up: % inhibition: concentration or dose not given beside the values; details: for % inhibition: fraction C (table title)
Procedure: The DSG2 fusion polypeptides were tested for the ability to block anti-DSG2 antibody by an anti-DSG2 antibody meso scale discovery (MSD) assay. […] The DSG2 fusion polypeptides were subjected to size exclusion chromatography and different elution fractions were examined. […] As shown in Table 7 and FIG. 1B, FIG. 1C, and FIG. 1D, enriching for fraction C improved the ability of the DSG2 fusion polypeptides to block ARVC patient serum.
ARVC diagnosis is based on complex tool known as Task Force Criteria, which can lead to varying levels of conviction about ARVC diagnosis. The utility of DSG2 antibodies as an indicator of ARVC disease state and severity was explored. Approximately 50 cc serum was collected from diagnosed ARVC patients. A total of 10 ARVC patients and 5 healthy controls were used for the analysis. ARVC serum samples were separated into more robust diagnosis and less robust diagnosis, based on available data in the patient medical records and anti-DSG2 antibody levels were compared using an anti-DSG2 antibody meso scale discovery (MSD)-based assay.

[2] = test system: anti-DSG2 antibodies in sera of ARVC patients; assay: Electrochemical immunoassay, blocking of ARVC patient sera binding to DSG2 extracellular domain; set-up: species or system human; details: fusion polypeptides 5 μg/mL; patient sera 10% (v/v); FIG. 5
Procedure: DSG2 fusion polypeptides were investigated for the ability to block the binding of anti-DSG2 antibodies in sera of ARVC patients to the DSG2 extracellular domain in an electrochemical immunoassay. The fusion polypeptides were added to a final concentration of 5 μg/mL and patient sera were used at a final concentration of 10% (v/v). The results are shown in the series of bar charts in FIG. 5, where the numbers 961, 965, 978, 986 and 964 indicate ARVC patient serum samples.
In FIG. 5, the first data series from the left is for DSG2FP #1 (described above as amino acids 49-608 of SEQ ID NO:30; Linker (IEGRMD (SEQ ID NO: 28)); amino acids 100-330 of IgG1 (SEQ ID NO: 4). The second data series from the left is for DSG2(50-602)-6×His, which is a fusion polypeptide of DSG2 amino acids 50-602 of SEQ ID NO: 1 (complete extracellular domain) to a hexahistidine peptide tag. The third data series from the left is for a combination of fusion polypeptides which includes EC1(50-155)-6×His, a fusion of DSG2 amino acids 50-155 of SEQ ID NO: 1 (EC1) to a hexahistidine peptide tag and EC2(151-268)-6×His, a fusion of DSG2 amino acids 151-268 of SEQ ID NO: 1 (EC2) to a hexahistidine peptide tag. […] It is likely that other affinity tags may be determined to be useful in alternative embodiments of DSG2 polypeptides, with examples including, but not limited to CBP, MBP, streptavidin and GST, for example. […]

[3] = test system: human iPSC-derived cardiomyocytes; assay: CiPA multielectrode array (MEA) assay, cell index; type: cell-based
Procedure: To determine the effect of anti-DSG2 antibodies in cardiomyocytes, the cardiac in vitro proarrhythmia (CiPA) assay was performed (Sager et al. Am Heart J 2014; 167:292-300; the contents of which are herein incorporated by reference in its entirety). CiPA is envisioned to consist of four components: (1) an evaluation of the effects of test agents on cardiac ion channel assays; (2) in silico modeling of the cardiac action potential based on the ion channel results to integrate the data with cardiac function; (3) experimental measurement of test agent effects in human ventricular myocytes to confirm the modeling result; and (4) scoring the results. The multielectrode array (MEA) assay is a component of CiPA which uses human induced pluripotent stem cell (iPSC)-derived cardiomyocytes to evaluate two-dimensional excitation propagation by recording spontaneous ECG-like field potentials. The sodium spike quantified below is a measurement of the specific sodium channel current in the cardiomyocyte and is also described in Blinova K, et al. Cell Rep. 2018 Sep. 25; 24(13):3582-3592 (the contents of which are herein incorporated by reference in its entirety). CiPA is considered a clinically validated cardiomyocyte-based assay by the FDA and the EMA. […] The parameters evaluated include measuring a change in the spike in the component of electrical signal propagation (e.g. sodium spike) and cell index—a function of cell impedance and cell number. Changes in sodium spike may be indicative of arrhythmia and a change in cell index (CI) may be indicative of changes to cell connectivity.
Cell index is inversely related the cell layer's conductivity to electrical current. Increased conductivity across the cell layer, may indicate that there are more gaps in the cell layer, implying that the cells are less well-adhered to each other. Thus, increased conductivity across the cell layer, may result in lower cell index. […] The concentration of anti-DSG2 antibodies varied from 0.00005 μg/mL to 5 μg/mL. […] The concentration of lidocaine varied from 3 μM to 100 μM. […] The concentration of anti-DSG2 antibodies varied from 0.00005 μg/mL to 5 μg/mL.

[4] = Dynamic light scattering (DLS) of DSG2 fusion polypeptides; type: physicochemical; details: average polymer distribution index
Text: 6 candidates were compared to the reference sample.

Q: Which results are given for “DSG2FP#1: R&D Systems DSG2 extracellular domain (49-608 of SEQ ID NO: 30); linker IEGRMD; amino acids 100-330 of IgG1”?
A: ability to bind and block ARVC serum (in words) [1]: able to bind and block anti-DSG2 antibody as well as serum obtained from ARVC patients; blocking of assay signal from ARVC patient serum samples with strong clinical data (in words) ([1]; Example 3, competing DSG2 polypeptide added): could also be blocked; % inhibition ([1]; sample: ARVC serum 1): 96.7%; % inhibition ([1]; sample: ARVC serum 2): 82.9%; % inhibition ([1]; sample: ARVC serum 3): 95.8%; % inhibition ([1]; sample: ARVC serum 4): 95.7%; % inhibition ([1]; sample: ARVC serum 5): 93.1%; blocking activity (inhibition; 100% = complete blocking) [2]: best blocking activity; reversal of effects of anti-DSG2 antibodies on cell index (in words) [3]: reversed; also recorded: completely blocks the effect of the anti-DSG2 antibodies; Cell Index (+/- SEM) ([3]; added with Anti-DSG2 antibody (0.00005 μg/mL)): 22.4 (1.9); Cell Index (+/- SEM) ([3]; added with Anti-DSG2 antibody (0.0005 μg/mL)): 22.4 (1.1); Cell Index (+/- SEM) ([3]; added with Anti-DSG2 antibody (0.005 μg/mL)): 20.4 (0.5); Cell Index (+/- SEM) ([3]; added with Anti-DSG2 antibody (0.05 μg/mL)): 21.6 (0.4); Cell Index (+/- SEM) ([3]; added with Anti-DSG2 antibody (0.5 μg/mL)): 22.0 (0.8); Cell Index (+/- SEM) ([3]; added with Anti-DSG2 antibody (5 μg/mL)): 24.1 (0.5); Cell Index (+/- SEM) ([3]; added with Anti-VCAM1 antibody (0.00005 μg/mL)): 23.2 (0.7); Cell Index (+/- SEM) ([3]; added with Anti-VCAM1 antibody (0.0005 μg/mL)): 22.0 (0.5); Cell Index (+/- SEM) ([3]; added with Anti-VCAM1 antibody (0.005 μg/mL)): 21.0 (0.5); Cell Index (+/- SEM) ([3]; added with Anti-VCAM1 antibody (0.05 μg/mL)): 21.0 (0.4); Cell Index (+/- SEM) ([3]; added with Anti-VCAM1 antibody (0.5 μg/mL)): 21.8 (0.5); Cell Index (+/- SEM) ([3]; added with Anti-VCAM1 antibody (5 μg/mL)): 24.6 (0.5); Cell Index (+/- SEM) ([3]; added with Rabbit IgG (0.00005 μg/mL)): 22.5 (1.7); Cell Index (+/- SEM) ([3]; added with Rabbit IgG (0.0005 μg/mL)): 22.4 (1.3); Cell Index (+/- SEM) ([3]; added with Rabbit IgG (0.005 μg/mL)): 21.0 (0.8); Cell Index (+/- SEM) ([3]; added with Rabbit IgG (0.05 μg/mL)): 21.3 (0.4); Cell Index (+/- SEM) ([3]; added with Rabbit IgG (0.5 μg/mL)): 21.1 (0.4); Cell Index (+/- SEM) ([3]; added with Rabbit IgG (5 μg/mL)): 24.2 (0.5); PDI [4]: 0.33
